US20260327263A1, “Anti-Bacterial Peptides” (priority 2023, published 2026)
In brackets after ≈: the same amount, converted by molar mass. Several values for one entry are separate records, joined by “and”; a condition that tells them apart may be missing. Identical values can stand only once. Like-named read-outs stand apart in the source and are kept apart here. Where a SMILES comes first, the peptide text is derived from it. Where no end group is shown, it is not given here. [ ]: non-standard residue; d: D form. 2Nal = N[C@@H](Cc1ccc2ccccc2c1)C(=O)O; Aib = CC(C)(N)C(=O)O

How the values were obtained:
[1] = system: Pseudomonas aeruginosa (PA); assay: Broth microdilution anti-bacterial assay (CLSI), Pseudomonas aeruginosa; assay type: cell-based, Pseudomonas aeruginosa (ATCC 14213); settings: for anti-bacterial activity (in words): PA and SA
Method: (§1) To evaluate their anti-bacterial potency, broth microdilution method as per the CLSI guidelines 1 was used. […] The anti-bacterial potency of the tested agents is quantified using minimum inhibitory concentration (MIC) and minimum bactericidal concentration (MBC). […] To obtain the MBC data, 1X, 2X and 4× MIC of the peptide variants were plated to obtain the number of viable colonies compared to the original inoculum.
(§2) Pseudomonas aeruginosa (ATCC 14213, PA), and methicillin resistant Staphylococcus aureus (BAA1717-USA 300, SA) were obtained from The American Type Culture Collection (ATCC).
(§3) Examination of the potency of modified short peptides against PA and SA strains was performed by using the broth microdilution protocol from the Clinical and Laboratory Standards Institute (CLSI) guidelines (CLSI 2012) as described. Briefly, five freshly plated bacteria colonies were grown in cation adjusted MH2 broth (BD Biosciences) in a shaker incubator at 37° C., 220 RPM. Cells were grown to an optical density (OD600) of ~0.2 measured using a Microplate Spectrophotometer (Molecular Devices Spectra Max Plus). 100 μL of microbial culture containing ~5×10^5 CFU/mL of bacteria in the respective broths were introduced into each well containing 100 μL of peptides and incubated overnight at 37° C. Next, to check the bactericidal effects, 100 μL from each well was transferred and spread on sterile MH2 agar plates. The plates were incubated overnight at 37° C. and the number of colonies forming units (CFU) were calculated the following day. Readings of bacteria grown in media without any treatments were normalized to 100% as media control. For the mixed infection study, three freshly plated bacteria colonies each from PA, SA and ST plates were grown together in cation adjusted MH2 broth and proceeded as described above.

[2] = system: Staphylococcus aureus (SA); assay: Broth microdilution anti-bacterial assay (CLSI), Staphylococcus aureus; assay type: cell-based
Method: as §1, §2, §3

[3] = system: mixed bacterial infection (PA, SA and ST); assay: Broth microdilution, mixed bacterial infection; assay type: cell-based
Method: Chronic wounds mostly present mixed infections where numerous pathogens colonize together.
as §3

[4] = system: Pseudomonas aeruginosa PA BAA-2110; assay: Broth microdilution, PA BAA-2110 (lung infection in cystic fibrosis); assay type: cell-based, Pseudomonas aeruginosa (BAA-2110); settings: Pseudomonas aeruginosa, BAA2110
Method: (§4) Bacteria strains involved in lung infection in cystic fibrosis patients (PA-BAA 2110) and ear-eye infections (PA-CRM 9027) are treated with exemplary variant peptides, such as E1AM2 and Q19L.
as §3

[5] = system: Pseudomonas aeruginosa PA CRM-9027; assay: Broth microdilution, PA CRM-9027 (ear-eye infections); assay type: cell-based, Pseudomonas aeruginosa (CRM-9027); settings: Pseudomonas aeruginosa, PACRM9027
Method: as §4, §3

[6] = system: Pseudomonas aeruginosa (PA); assay: Antimicrobial resistance evolution assay, PA; assay type: cell-based; settings: for development of antimicrobial resistance, PA: serial passaging, 28 days, resistance = >4-fold MIC change
Source text: The development of antimicrobial resistance is defined by greater than a 4-fold change to their initial minimum inhibitory concentration (MIC) at day 1. Exemplary bacteria strains Pseudomonas aeruginosa (PA) and Staphylococcus aureus (SA) are subjected to continuous daily serial passaging over several days, with treatment of exemplary variant peptides E1AM2 (SEQ ID NO: 2) and Q19L (SEQ ID NO: […]) at subinhibitory concentrations. […] The treatments were discontinued when the MIC increased by more than four-fold from the initial MIC or when MIC reached >100 μM.
Briefly, sequential passaging of PA, and SA cells was done with sub-inhibitory concentrations of antibiotics or E1AM2 up to 4 weeks. The cells grown in those concentrations of antibiotics or peptides were diluted to A600 nm (OD600) of ~0.2 and serially passaged daily with the same concentrations at 37° C. with agitation at 24 h intervals.

[7] = system: Pseudomonas aeruginosa (PA); assay: Combination of peptide with antibiotics against PA; assay type: cell-based; settings: with colistin
Source text: In view of the results above, the peptide variants as described herein show synergistic anti-bacterial effects when used in combination with antibiotics.
In some examples, the methods described herein further comprises administering an antibiotic agent to the subject.

[8] = PA, overnight, 37° C., ≥99% inhibition
[9] = SA, overnight, 37° C., ≥99% inhibition

Row | Compound | MBC ([3]; mixed infection) | development of antimicrobial resistance, PA [6] | MIC [1, 8] | MBC ([1]; PA, ≥99% killing) | MIC [2, 9] | MBC ([2]; SA, ≥99% killing) | also measured
1 | CO/N=C(\C(=O)N[C@@H]1C(=O)N2C(C(=O)[O-])=C(C[N+]3(C)CCCC3)CS[C@H]12)c1csc(N)n1 [Cefepime] | 12.5 µM (≈ 6.01 µg/mL) | developed resistance | – | – | – | – | MBC ([1]; Pseudomonas aeruginosa): 25 µM (≈ 12 µg/mL); MIC ([1]; Pseudomonas aeruginosa): 12.5 µM (≈ 6.01 µg/mL); MBC ([2]; Staphylococcus aureus): 25 µM (≈ 12 µg/mL); MIC ([2]; Staphylococcus aureus): 12.5 µM (≈ 6.01 µg/mL); MIC [3]: 12.5 µM (≈ 6.01 µg/mL); MBC [4]: 25 µM (≈ 12 µg/mL); MIC [4]: 12.5 µM (≈ 6.01 µg/mL); MBC [5]: 1.56 µM (≈ 0.75 µg/mL); MIC [5]: 1.56 µM (≈ 0.75 µg/mL)
2 | CCN1CCN(C(=O)N[C@@H](C(=O)N[C@@H]2C(=O)N3[C@@H]2SC(C)(C)[C@@H]3C(=O)O)c2ccccc2)C(=O)C1=O [Piperacillin, (2S,5R,6R)-6-{[(2R)-2-[(4-ethyl-2,3-dioxo-piperazine-1-carbonyl)amino]-2-phenyl-acetyl]amino}-3,3-dimethyl-7-oxo-4-thia-1-azabicyclo[3.2.0]heptane-2-carboxylic acid] | 25 µM (≈ 12.9 µg/mL) | developed resistance | – | – | – | – | MBC ([1]; Pseudomonas aeruginosa): 50 µM (≈ 25.9 µg/mL); MIC ([1]; Pseudomonas aeruginosa): 25 µM (≈ 12.9 µg/mL); MBC ([2]; Staphylococcus aureus): 12.5 µM (≈ 6.47 µg/mL); MIC ([2]; Staphylococcus aureus): 6.25 µM (≈ 3.23 µg/mL); MIC [3]: 25 µM (≈ 12.9 µg/mL); MBC [4]: 25 µM (≈ 12.9 µg/mL); MIC [4]: 12.5 µM (≈ 6.47 µg/mL); MBC [5]: 6.25 µM (≈ 3.23 µg/mL); MIC [5]: 6.25 µM (≈ 3.23 µg/mL)
3 | CC(C)C[C@@H](NC(=O)[C@@H](C)NC(=O)[C@@H](CC(C)C)NC(=O)[C@@H](CCCCN)NC(=O)[C@@H](CC(C)C)NC(=O)[C@@H](C)NC(=O)[C@@H](CCCCN)NC(=O)[C@@H](CCCCN)NC(=O)[C@@H](CO)NC(=O)[C@@H](CC(C)C)NC(=O)[C@@H](CCCCN)NC(=O)[C@@H](CC(C)C)NC(=O)[C@@H](Cc1c[nH]c2ccccc12)NC(=O)[C@@H](CCCCN)NC(=O)[C@@H](CCCCN)NC(=O)[C@@H](CC(C)C)NC(=O)[C@@H](CC(C)C)NC(=O)[C@@H](CCCCN)NC(=O)[C@H](N)CCCCN)C(N)=O [E1AM2 D-V8L Q19L C-2-NH2] (H-[dK][dK][dL][dL][dK][dK][dW][dL][dK][dL][dS][dK][dK][dA][dL][dK][dL][dA][dL]-NH2) | – | – | 1.56 µM (≈ 3.51 µg/mL) | 1.56 µM (≈ 3.51 µg/mL) | 1.56 µM (≈ 3.51 µg/mL) | 1.56 µM (≈ 3.51 µg/mL) | MBC in combination with colistin [7]: reduced minimum bactericidal concentration (MBC); MIC in combination with colistin [7]: reduced minimum inhibitory concentration (MIC)
4 | CC(C)C[C@H](NC(=O)[C@H](C)NC(=O)[C@H](CC(C)C)NC(=O)[C@H](CCCCN)NC(=O)[C@H](CC(C)C)NC(=O)[C@H](C)NC(=O)[C@H](CCCCN)NC(=O)[C@H](CCCCN)NC(=O)[C@H](CO)NC(=O)[C@H](CC(C)C)NC(=O)[C@H](CCCCN)NC(=O)[C@H](CC(C)C)NC(=O)[C@H](Cc1ccc2ccccc2c1)NC(=O)[C@H](CCCCN)NC(=O)[C@H](CCCCN)NC(=O)[C@H](CC(C)C)NC(=O)[C@H](CC(C)C)NC(=O)[C@H](CCCCN)NC(=O)[C@@H](N)CCCCN)C(N)=O [E1AM2 W72Nal V8L Q19L C-2-NH2] (H-KKLLKK[2Nal]LKLSKKALKLAL-NH2) | – | – | 1.56 µM (≈ 3.53 µg/mL) | 1.56 µM (≈ 3.53 µg/mL) | 1.56 µM (≈ 3.53 µg/mL) | 1.56 µM (≈ 3.53 µg/mL) | MBC in combination with colistin [7]: reduced minimum bactericidal concentration (MBC); MIC in combination with colistin [7]: reduced minimum inhibitory concentration (MIC)
5 | KKLLKKWVKLSKKALKLAQSL-NH2 [E1AM2-NH2] | 6.25 µM | – | 3.125 µM | 6.25 µM | 6.25 µM | 12.5 µM | MIC ([3]; mixed infection): 6.25 µM
6 | O=C(O)c1cn(C2CC2)c2cc(N3CCNCC3)c(F)cc2c1=O [Ciprofloxacin, 1-cyclopropyl-6-fluoro-4-oxo-7-(piperazin-1-yl)-quinoline-3-carboxylic acid] | 25 µM (≈ 8.28 µg/mL) | developed resistance | – | – | – | – | –
7 | CN[C@@H]1[C@@H](O)C(O[C@@H]2[C@@H](O)[C@H](O[C@H]3O[C@H]([C@@H](C)NC)CC[C@H]3N)[C@@H](N)C[C@H]2N)OC[C@]1(C)O (stereo partly drawn) [Gentamicin, (3R,4R,5R)-2-{[(1S,2S,3R,4S,6R)-4,6-diamino-3-{[(2R,3R,6S)-3-amino-6-[(1R)-1-(methylamino)ethyl]oxan-2-yl]oxy}-2-hydroxycyclohexyl]oxy}-5-methyl-4-(methylamino) oxane-3,5-diol] | 6.25 µM and 6.26 µM | developed resistance | – | – | – | – | MBC ([1]; Pseudomonas aeruginosa): 6.25 µM (≈ 2.99 µg/mL); MIC ([1]; Pseudomonas aeruginosa): 3.12 µM (≈ 1.49 µg/mL); MBC ([2]; Staphylococcus aureus): 3.25 µM (≈ 1.55 µg/mL); MIC ([2]; Staphylococcus aureus): 1.56 µM (≈ 0.745 µg/mL); MIC [3]: 3.12 µM (≈ 1.49 µg/mL); MBC [4]: 25 µM (≈ 11.9 µg/mL); MIC [4]: 25 µM (≈ 11.9 µg/mL); MBC [5]: 12.5 µM (≈ 5.97 µg/mL); MIC [5]: 6.25 µM (≈ 2.99 µg/mL); AMR prevention / resistance induction ([6]; Table 15: in PA and SA, bacteria not named): induced resistance development in bacteria
8 | KKLLKKWLKLSKKALKLA-NH2 [V8LQ19L C-3] | – | – | >6.25 µM | >6.25 µM | >6.25 µM | >8.26 µM | anti-bacterial activity (in words) [1]: strong potency
9 | KKLLKKWVKLKKKALKLAQSL-NH2 [S11K] | – | – | 12.5 µM | 12.5 µM | 12.5 µM | 12.5 µM | –
10 | KKLLKKWVKLSKKALKLAQKL-NH2 [S20K] | – | – | 25 µM | 25 µM | 25 µM | 25 µM | –
11 | CC(C)C[C@H](NC(=O)[C@H](CO)NC(=O)[C@H](CC(C)C)NC(=O)[C@H](C)NC(=O)[C@H](CC(C)C)NC(=O)[C@H](CCCCN)NC(=O)[C@H](CC(C)C)NC(=O)C(C)(C)NC(=O)[C@H](CCCCN)NC(=O)[C@H](CCCCN)NC(=O)[C@H](CO)NC(=O)[C@H](CC(C)C)NC(=O)[C@H](CCCCN)NC(=O)[C@H](CC(C)C)NC(=O)[C@H](Cc1c[nH]c2ccccc12)NC(=O)[C@H](CCCCN)NC(=O)[C@H](CCCCN)NC(=O)[C@H](CC(C)C)NC(=O)[C@H](CC(C)C)NC(=O)[C@H](CCCCN)NC(=O)[C@@H](N)CCCCN)C(N)=O [V8LQ19LA14Aib] (H-KKLLKKWLKLSKK[Aib]LKLALSL-NH2) | – | – | 3.126 µM (≈ 7.7 µg/mL) | 6.25 µM (≈ 15.4 µg/mL) | 3.125 µM (≈ 7.7 µg/mL) | 6.25 µM (≈ 15.4 µg/mL) | –
12 | KKLLKKLVKLSKKALKLAQSL-NH2 [W7L] | – | – | 3.125 µM | 3.125 µM | 6.25 µM | 6.25 µM | anti-bacterial activity (in words) [1]: reduced MIC against PA
13 | KKLLKKWVKLLKKALKLAQSL-NH2 [S11L] | – | – | 12.5 µM | 12.5 µM | 6.25 µM | 6.25 µM | –
